# In US9944666B2, “Compounds that are S1P modulating agents and/or ATX modulating agents” (BIOGEN MA INC., priority 2012, dated 2018):
# Target: T1, Human ATX protein (Homo sapiens, UniProt Q13822)
# T1 construct: made in house
# Assay: ATX biochemical FRET assay with FS-3 substrate
# Settings: FS-3 2 μM, ATX 1.0 μg/mL, room temperature 2 hours, fluorescence 485/538 nm
# Description: ATX (Autotaxin) is a 125 KDa glycoprotein with lysophospholipase D (LPLD) activity that generates the bioactive lipid lysophosphatidic acid (LPA) from lysophosphatidylcholine (LPC). The ATX biochemical assay utilizes a FRET (fluorescence resonance energy transfer) technology platform. The fluorescence signal of FRET substrate FS-3 is quenched due to intra-molecular FRET of a fluorophore to a non-fluorescing quencher (Ferguson, C. G., et al., Org Lett. 2006 May 11; 8(10): 2023-2026, which is incorporated by reference in its entirety). ATX catalyzes the hydrolysis of the substrate which separates the dabsyl quencher from the fluorescein reporter, which becomes fluorescent. The reaction is monitored by a SpectraMax M5 (Molecular Devices, Sunnyvale, Calif.) with at excitation wavelength 485 nm and emission wavelength […].
# Fatty acid free-BSA (Sigma A8806): 10 mg/ml, in H2O, stored at 4° C.
# 2×ATX assay buffer: 100 mM Tris, 280 mM NaCl, 10 mM KCl, 2 mM CaCl2, 2 mM MgCl2, pH 7.4.
# Human ATX protein: expressed and purified in house. Stored at −80° C.
# Substrate FS-3 (Echelon, L-2000): 100 μg in 77.74 μL H2O (1 mM stock), stored at −20° C.
# 384-well flat bottom plates—Corning #3575.
# Compound dilution—All compounds were provided at 10 mM in 100% DMSO. In the first well, 2 μL of 10 mM compound was added to 78 μL of DMSO (1:40 dilution). In subsequent wells 3-fold dilution (total 10 dilutions) were performed.
# 1×ATX assay buffer was made up with a final concentration of 1 mg/mL fatty acid free-BSA using 2×ATX assay buffer, 10 mg/ml fatty acid free-BSA and ddH2O.
# ATX protein was diluted with 1×ATX assay buffer to a concentration of 1.32 μg/mL (1.32×). 38 μL was added per well to the assay plate. The final concentration of ATX in the reaction as 1.0 μg/mL.
# 2 μL per well of compounds was transferred to provide the desired concentration. The plate was centrifuged, then incubated at room temperature for 30 minutes on the shaker.
# FS-3 was diluted with 1×ATX assay buffer to a concentration of FS-3 of 10 μM (5×). Then, 10 μL was added per well to the assay plate. The final concentration of FS-3 in the reaction was 2 μM. The plate was centrifuged. The plate was kept shaking at room temperature for 2 hours. Because FS-3 substrate is light sensitive, plates were kept covered and protected from light.
# Fluorescence was measured using SpectraMax M5 (excitation at 485 nm/emission at 538 nm, top read).
row,SMILES,IC50 [µM]
1,"CC[C@H]1CC[C@@H](Oc2ccc3cc(C(C)N4C5CCC4CC(C(=O)O)C5)ccc3c2C(F)(F)F)CC1 (relative stereo) [Example 176, 8-(1-(6-((cis-4-ethylcyclohexyl)oxy)-5-(trifluoromethyl)naphthalen-2-yl)ethyl)-8-azabicyclo[3.2.1]octane-3-carboxylic acid]",≤ 0.1
2,"CCC(c1ccc2c(C(F)(F)F)c(O[C@H]3CC[C@@H](C(F)(F)F)CC3)ccc2c1)N1C2CCCC1CC(C(=O)O)C2 (relative stereo) [Example 177, 9-(1-(6-((cis-4-trifluoromethylcyclohexyl)oxy)-5-(trifluoromethyl)naphthalen-2-yl)propyl)-9-azabicyclo[3.3.1]nonane-3-carboxylic acid]",≤ 0.1
3,"CCC(c1ccc2c(C(F)(F)F)c(O[C@H]3CC[C@@H](C(F)(F)F)CC3)ccc2c1)N1C2CCC1CC(C(=O)O)C2 (relative stereo) [Example 178, 8-(1-(6-((cis-4-trifluoromethylcyclohexyl)oxy)-5-(trifluoromethyl)naphthalen-2-yl)propyl)-8-azabicyclo[3.2.1]octane-3-carboxylic acid]",≤ 0.1
4,"CCC(c1ccc2c(C(F)(F)F)c(O[C@H]3CC[C@@H](CC)CC3)ccc2c1)N1C2CCCC1CC(C(=O)O)C2 (relative stereo) [Example 179, 9-(1-(6-((cis-4-ethylcyclohexyl)oxy)-5-(trifluoromethyl)naphthalen-2-yl)propyl)-9-azabicyclo[3.3.1]nonane-3-carboxylic acid]",≤ 0.1
5,"CCC(c1ccc2c(C(F)(F)F)c(O[C@H]3CC[C@@H](CC)CC3)ccc2c1)N1C2CCC1CC(C(=O)O)C2 (relative stereo) [Example 180, 8-(1-(6-((cis-4-ethylcyclohexyl)oxy)-5-(trifluoromethyl)naphthalen-2-yl)propyl)-8-azabicyclo[3.2.1]octane-3-carboxylic acid]",≤ 0.1
6,"CC[C@H]1CC[C@@H](Oc2ccc3cc(C(C)N4C5CCCC4CC(C(=O)O)C5)ccc3c2Cl)CC1 (relative stereo) [Example 182, 9-(1-(6-((cis-4-ethylcyclohexyl)oxy)-5-chloronaphthalen-2-yl)ethyl)-9-azabicyclo[3.3.1]nonane-3-carboxylic acid]",≤ 0.1
7,"C[C@H]1CC[C@@H](Oc2ccc3cc(CN4C5CCCC4CC(C(=O)O)C5)ccc3c2Cl)CC1 (relative stereo) [Example 183, 9-((5-Chloro-6-((cis-4-methylcyclohexyl)oxy)naphthalen-2-yl)methyl)-9-azabicyclo[3.3.1]nonane-3-carboxylic acid]",≤ 0.25
8,"CC[C@H]1CC[C@@H](Oc2ccc3cc(C(C)N4C5CCC4CC(C(=O)O)C5)ccc3c2Cl)CC1 (relative stereo) [Example 184, 8-(1-(5-Chloro-6-((cis-4-ethylcyclohexyl)oxy)naphthalen-2-yl)ethyl)-8-azabicyclo[3.2.1]octane-3-carboxylic acid]",≤ 0.1
9,"CC[C@H]1CC[C@@H](Oc2ccc3cc(CN4C5CCC4CC(C(=O)O)C5)ccc3c2Cl)CC1 (relative stereo) [Example 185, 8-((5-Chloro-6-((cis-4-ethylcyclohexyl)oxy)naphthalen-2-yl)methyl)-8-azabicyclo[3.2.1]octane-3-carboxylic acid]",≤ 0.1
10,"C[C@H](c1ccc2c(C(F)(F)F)c(O[C@H]3CC[C@@H](C(F)(F)F)CC3)ccc2c1)N1C2CCCC1CC(C(=O)O)C2 (single isomer, unassigned) [Example 89]",≤ 0.1
11,"C[C@@H](c1ccc2c(C(F)(F)F)c(O[C@H]3CC[C@@H](C(F)(F)F)CC3)ccc2c1)N1C2CCCC1CC(C(=O)O)C2 (single isomer, unassigned) [Example 90]",≤ 0.1
12,"CC[C@@H](c1ccc2c(C(F)(F)F)c(O[C@H]3CC[C@@H](C)CC3)ccc2c1)N1C2CCC1CC(C(=O)O)C2 (single isomer, unassigned) [Example 233, 8-((s)-1-(6-((cis-4-methylcyclohexyl)oxy)-5-(trifluoromethyl)naphthalen-2-yl)propyl)-8-azabicyclo[3.2.1]octane-3-carboxylic acid]",≤ 0.1
13,"CC[C@H]1CC[C@@H](Oc2ccc3cc([C@@H](C)N4C5CCCC4CC(C(=O)O)C5)ccc3c2Cl)CC1 (single isomer, unassigned) [Example 238]",≤ 0.1
14,"C[C@H](c1ccc2c(Cl)c(O[C@H]3CC[C@@H](C(F)(F)F)CC3)ccc2c1)N1C2CCCC1CC(C(=O)O)C2 (single isomer, unassigned) [Example 240]",≤ 0.1
15,"C[C@H](c1ccc2c(Cl)c(O[C@H]3CC[C@@H](C(F)(F)F)CC3)ccc2c1)N1C2CCC1CC(C(=O)O)C2 (single isomer, unassigned) [Example 242]",≤ 0.1
16,"CC[C@@H](c1ccc2c(Cl)c(O[C@H]3CC[C@@H](CC)CC3)ccc2c1)N1C2CCCC1CC(C(=O)O)C2 (single isomer, unassigned) [Example 249]",≤ 0.1
17,"CC[C@H](c1ccc2c(C(F)(F)F)c(O[C@H]3CC[C@@H](C(F)(F)F)CC3)ccc2c1)N1C2CCC1CC(C(=O)O)C2 (single isomer, unassigned) [Example 287]",≤ 0.1
18,"CC[C@@H](c1ccc2c(C(F)(F)F)c(O[C@H]3CC[C@@H](C(F)(F)F)CC3)ccc2c1)N1C2CCC1CC(C(=O)O)C2 (single isomer, unassigned) [Example 288]",≤ 0.25
19,"CC[C@H]1CC[C@@H](Oc2ccc3cc([C@@H](C)N4C5CCC4CC(C(=O)O)C5)ccc3c2C(F)(F)F)CC1 (single isomer, unassigned) [Example 289]",≤ 0.1
20,"CC[C@H]1CC[C@@H](Oc2ccc3cc([C@H](C)N4C5CCC4CC(C(=O)O)C5)ccc3c2C(F)(F)F)CC1 (single isomer, unassigned) [Example 290]",≤ 0.1
21,"CC[C@H]1CC[C@@H](Oc2ccc3cc([C@@H](C)N4C5CCCC4CC(C(=O)O)C5)ccc3c2C(F)(F)F)CC1 (single isomer, unassigned) [Example 291]",≤ 0.1
22,"CC[C@H]1CC[C@@H](Oc2ccc3cc([C@H](C)N4C5CCCC4CC(C(=O)O)C5)ccc3c2C(F)(F)F)CC1 (single isomer, unassigned) [Example 292]",≤ 0.1
23,"CC[C@H](c1ccc2c(C(F)(F)F)c(O[C@H]3CC[C@@H](CC)CC3)ccc2c1)N1C2CCC1CC(C(=O)O)C2 (single isomer, unassigned) [Example 293]",≤ 0.5
24,"CC[C@@H](c1ccc2c(C(F)(F)F)c(O[C@H]3CC[C@@H](CC)CC3)ccc2c1)N1C2CCC1CC(C(=O)O)C2 (single isomer, unassigned) [Example 294]",≤ 0.1
25,"CC[C@H](c1ccc2c(C(F)(F)F)c(O[C@H]3CC[C@@H](C(F)(F)F)CC3)ccc2c1)N1C2CCCC1CC(C(=O)O)C2 (single isomer, unassigned) [Example 295]",≤ 0.25
26,"CC[C@@H](c1ccc2c(C(F)(F)F)c(O[C@H]3CC[C@@H](C(F)(F)F)CC3)ccc2c1)N1C2CCCC1CC(C(=O)O)C2 (single isomer, unassigned) [Example 296]",≤ 0.1
27,"CC(c1ccc2c(C(F)(F)F)c(O[C@H]3CC[C@@H](C)CC3)ccc2c1)N1C2CCCC1CC(C(=O)O)C2 (single isomer, unassigned; enantiomer 1) [Example 94, 9-(1-(6-((cis-4-Methylcyclohexyl)oxy)-5-(trifluoromethyl)naphthalen-2-yl)ethyl)-9-azabicyclo[3.3.1]nonane-3-carboxylic acid, enantiomer 1]",≤ 0.1
28,"CC(c1ccc2c(C(F)(F)F)c(O[C@H]3CC[C@@H](C)CC3)ccc2c1)N1C2CCC1CC(C(=O)O)C2 (single isomer, unassigned; enantiomer 1) [Example 130, 8-(1-(6-((cis-4-Methylcyclohexyl)oxy)-5-(trifluoromethyl)naphthalen-2-yl)ethyl)-8-azabicyclo[3.2.1]octane-3-carboxylic acid, enantiomer 1]",≤ 0.25
29,"CC(c1ccc2c(C(F)F)c(O[C@H]3CC[C@@H](C)CC3)ccc2c1)N1C2CCC1CC(C(=O)O)C2 (single isomer, unassigned; enantiomer 1) [Example 136, 8-(1-(5-(difluoromethyl)-6-((cis-4-methylcyclohexyl)oxy)naphthalen-2-yl)ethyl)-8-azabicyclo[3.2.1]octane-3-carboxylic acid, enantiomer 1]",≤ 0.1
